Measured values taken from ChEMBL document CHEMBL3885861, “Open TG-GATES”.

Organism: Rattus norvegicus
Assay: Open TG-GATES - Regimen: Single
Type: toxicity, organism-based, Sprague-Dawley
Design: regimen Single, gender Male, age 6 weeks
Details: in vivo, iv, 0 mg/kg, route intravenous injection, dose level Control; for APTT / Bas / Eos / Fbg / Hb / Ht / Lym / MCH / MCHC / MCV / Mono / Neu / PT / Plat / RBC / Ret / WBC: tissue Blood; for KIDNEY_L / KIDNEY_R / KIDNEY_TOTAL: tissue Kidney; for LIVER: tissue Liver; for A/G / ALP / ALT / AST / BUN / CRE / Ca / Cl / DBIL / GLC / IP / K / LDH / Na / PL / RALB / TBIL / TC / TG / TP / gamma-GTP: tissue Plasma

C[C@@H]1C[C@@H]([C@H](O)CC2CC(=O)NC(=O)C2)C(=O)[C@@H](C)C1 [CYCLOHEXIMIDE]
TERMINAL_BW (3 h): 221.4 g | APTT (3 h): 21.8 s | Bas (3 h): 0% | Eos (3 h): 1% | Fbg (3 h): 315.6 mg/dL | Hb (3 h): 13.1 g/dL | Ht (3 h): 39.2% | Lym (3 h): 75.6% | MCH (3 h): 21.3 pg | MCHC (3 h): 33.3% | MCV (3 h): 64 fL | Mono (3 h): 2.8% | Neu (3 h): 19.4% | PT (3 h): 16.2 s | Plat (3 h): 120.1 x10_4/uL | RBC (3 h): 612.2 x10_4/ul | Ret (3 h): 8.7% | WBC (3 h): 95.6 x10_2/uL | KIDNEY_L (3 h): 1 g | KIDNEY_R (3 h): 1 g | KIDNEY_TOTAL (3 h): 2 g | LIVER (3 h): 10.2 g | A/G (3 h): 1.2 | ALP (3 h): 1480.4 IU/L | ALT (3 h): 44.4 IU/L | AST (3 h): 75.4 IU/L | BUN (3 h): 11.4 mg/dL | CRE (3 h): 0.1 mg/dL | Ca (3 h): 10.4 mg/dL | Cl (3 h): 106.8 meq/L | DBIL (3 h): 0.004 mg/dL | GLC (3 h): 187 mg/dL | IP (3 h): 9.1 mg/dL | K (3 h): 4 meq/L | LDH (3 h): 171.8 IU/L | Na (3 h): 141 meq/L | PL (3 h): 130.8 mg/dL | RALB (3 h): 2.9 g/dL | TBIL (3 h): 0.024 mg/dL | TC (3 h): 76.8 mg/dL | TG (3 h): 49.2 mg/dL | TP (3 h): 5.2 g/dL | gamma-GTP (3 h): 1.4 IU/L | TERMINAL_BW (6 h): 214.4 g | APTT (6 h): 22.6 s | Bas (6 h): 0% | Eos (6 h): 1% | Fbg (6 h): 314.4 mg/dL | Hb (6 h): 13.4 g/dL | Ht (6 h): 39.9% | Lym (6 h): 78.2% | MCH (6 h): 21.4 pg | MCHC (6 h): 33.6% | MCV (6 h): 64 fL | Mono (6 h): 2.8% | Neu (6 h): 17.2% | PT (6 h): 15.5 s | Plat (6 h): 113.8 x10_4/uL | RBC (6 h): 624 x10_4/ul | Ret (6 h): 8.7% | WBC (6 h): 88.7 x10_2/uL | KIDNEY_L (6 h): 1 g | KIDNEY_R (6 h): 1 g | KIDNEY_TOTAL (6 h): 2 g | LIVER (6 h): 9.4 g | A/G (6 h): 1.3 | ALP (6 h): 1423 IU/L | ALT (6 h): 38.6 IU/L | AST (6 h): 71.6 IU/L | BUN (6 h): 10 mg/dL | CRE (6 h): 0.1 mg/dL | Ca (6 h): 10.5 mg/dL | Cl (6 h): 107.2 meq/L | DBIL (6 h): 0.002 mg/dL | GLC (6 h): 177 mg/dL | IP (6 h): 9.2 mg/dL | K (6 h): 4.2 meq/L | LDH (6 h): 198.8 IU/L | Na (6 h): 140.8 meq/L | PL (6 h): 139.6 mg/dL | RALB (6 h): 2.9 g/dL | TBIL (6 h): 0.036 mg/dL | TC (6 h): 78.6 mg/dL | TG (6 h): 52 mg/dL | TP (6 h): 5.2 g/dL | gamma-GTP (6 h): 1.2 IU/L | TERMINAL_BW (9 h): 215.8 g | APTT (9 h): 23.2 s | Bas (9 h): 0% | Eos (9 h): 0.6% | Fbg (9 h): 313.4 mg/dL | Hb (9 h): 12.9 g/dL | Ht (9 h): 38.5% | Lym (9 h): 78.8% | MCH (9 h): 20.8 pg | MCHC (9 h): 33.4% | MCV (9 h): 62.2 fL | Mono (9 h): 2% | Neu (9 h): 17.8% | PT (9 h): 15.8 s | Plat (9 h): 109.2 x10_4/uL | RBC (9 h): 620.6 x10_4/ul | Ret (9 h): 8.1% | WBC (9 h): 65.1 x10_2/uL | KIDNEY_L (9 h): 1 g | KIDNEY_R (9 h): 1 g | KIDNEY_TOTAL (9 h): 2 g | LIVER (9 h): 9 g | A/G (9 h): 1.3 | ALP (9 h): 1329.2 IU/L | ALT (9 h): 37.4 IU/L | AST (9 h): 71 IU/L | BUN (9 h): 10 mg/dL | CRE (9 h): 0.1 mg/dL | Ca (9 h): 10.4 mg/dL | Cl (9 h): 106.4 meq/L | DBIL (9 h): 0.002 mg/dL | GLC (9 h): 176 mg/dL | IP (9 h): 9.7 mg/dL | K (9 h): 3.9 meq/L | LDH (9 h): 164.6 IU/L | Na (9 h): 142.4 meq/L | PL (9 h): 125.8 mg/dL | RALB (9 h): 3 g/dL | TBIL (9 h): 0.036 mg/dL | TC (9 h): 72.4 mg/dL | TG (9 h): 37.6 mg/dL | TP (9 h): 5.4 g/dL | gamma-GTP (9 h): 1.4 IU/L | TERMINAL_BW (24 h): 229.3 g | APTT (24 h): 22.3 s | Bas (24 h): 0% | Eos (24 h): 1% | Fbg (24 h): 319.8 mg/dL | Hb (24 h): 13.5 g/dL | Ht (24 h): 40.3% | Lym (24 h): 80.6% | MCH (24 h): 21 pg | MCHC (24 h): 33.5% | MCV (24 h): 62.5 fL | Mono (24 h): 2.8% | Neu (24 h): 14.6% | PT (24 h): 16 s | Plat (24 h): 119 x10_4/uL | RBC (24 h): 643.8 x10_4/ul | Ret (24 h): 8.7% | WBC (24 h): 90.5 x10_2/uL | KIDNEY_L (24 h): 1 g | KIDNEY_R (24 h): 1 g | KIDNEY_TOTAL (24 h): 2 g | LIVER (24 h): 11 g | A/G (24 h): 1.2 | ALP (24 h): 1510.6 IU/L | ALT (24 h): 38.2 IU/L | AST (24 h): 65.8 IU/L | BUN (24 h): 16 mg/dL | CRE (24 h): 0.1 mg/dL | Ca (24 h): 10.8 mg/dL | Cl (24 h): 106 meq/L | DBIL (24 h): 0 mg/dL | GLC (24 h): 202.2 mg/dL | IP (24 h): 7.7 mg/dL | K (24 h): 4.2 meq/L | LDH (24 h): 179.2 IU/L | Na (24 h): 140.4 meq/L | PL (24 h): 142.8 mg/dL | RALB (24 h): 3 g/dL
